Data taken from ChEMBL document CHEMBL1158448, “Synthesis and antinociceptive activity of pyrazolyl isoxazolines and pyrazolyl isoxazoles” (2009).

Key:
Rattus norvegicus [1] = experiment: Antinociceptive activity in Wistar albino rat assessed as latency in reaction time required for thermal stimulus-induced tail flicking at 15 mg/kg, po after 120 mins by analgesiometric analysis (RVb=3.33 +/- 0.21 seconds); type: functional
Mus musculus [2] = experiment: Antinociceptive activity in Swiss albino mouse assessed as protection against acetic acid-induced abdominal constriction at 15 mg/kg, po measured for 10 mins after 5 mins of acetic acid challenge relative to control; type: functional, Abdomen
Rattus norvegicus [3] = experiment: Antinociceptive activity in Wistar albino rat assessed as latency in reaction time required for thermal stimulus-induced tail flicking at 30 mg/kg, po after 120 mins by analgesiometric analysis (RVb=3.33 +/- 0.21 seconds); type: functional
Rattus norvegicus [4] = experiment: Antinociceptive activity in Wistar albino rat assessed as latency in reaction time required for thermal stimulus-induced tail flicking at 30 mg/kg, po after 30 mins by analgesiometric analysis (RVb=3.33 +/- 0.21 seconds); type: functional
Mus musculus [5] = experiment: Antinociceptive activity in Swiss albino mouse assessed as protection against acetic acid-induced abdominal constriction at 30 mg/kg, po measured for 10 mins after 5 mins of acetic acid challenge relative to control; type: functional, Abdomen
Rattus norvegicus [6] = experiment: Antinociceptive activity in Wistar albino rat assessed as latency in reaction time required for thermal stimulus-induced tail flicking at 15 mg/kg, po after 30 mins by analgesiometric analysis (RVb=3.33 +/- 0.21 seconds); type: functional
Rattus norvegicus [7] = experiment: Antinociceptive activity in Wistar albino rat assessed as latency in reaction time required for thermal stimulus-induced tail flicking at 15 mg/kg, po after 60 mins by analgesiometric analysis (RVb=3.16 +/- 0.16 seconds); type: functional
Rattus norvegicus [8] = experiment: Antinociceptive activity in Wistar albino rat assessed as latency in reaction time required for thermal stimulus-induced tail flicking at 30 mg/kg, po after 180 mins by analgesiometric analysis (RVb=3.16 +/- 0.16 seconds); type: functional
Rattus norvegicus [9] = experiment: Antinociceptive activity in Wistar albino rat assessed as latency in reaction time required for thermal stimulus-induced tail flicking at 15 mg/kg, po after 180 mins by analgesiometric analysis (RVb=3.16 +/- 0.16 seconds); type: functional
Rattus norvegicus [10] = experiment: Antinociceptive activity in Wistar albino rat assessed as latency in reaction time required for thermal stimulus-induced tail flicking at 30 mg/kg, po after 60 mins by analgesiometric analysis (RVb=3.16 +/- 0.16 seconds); type: functional
Rattus norvegicus [11] = experiment: Antinociceptive activity in Wistar albino rat assessed as latency in reaction time required for thermal stimulus-induced tail flicking at 5 mg/kg, po after 30 mins by analgesiometric analysis (RVb=3.33 +/- 0.21 seconds); type: functional
Rattus norvegicus [12] = experiment: Antinociceptive activity in Wistar albino rat assessed as latency in reaction time required for thermal stimulus-induced tail flicking at 5 mg/kg, po after 120 mins by analgesiometric analysis (RVb=3.33 +/- 0.21 seconds); type: functional
Rattus norvegicus [13] = experiment: Antinociceptive activity in Wistar albino rat assessed as latency in reaction time required for thermal stimulus-induced tail flicking at 5 mg/kg, po after 60 mins by analgesiometric analysis (RVb=3.16 +/- 0.16 seconds); type: functional
Rattus norvegicus [14] = experiment: Antinociceptive activity in Wistar albino rat assessed as latency in reaction time required for thermal stimulus-induced tail flicking at 5 mg/kg, po after 180 mins by analgesiometric analysis (RVb=3.16 +/- 0.16 seconds); type: functional
Mus musculus [15] = experiment: Antinociceptive activity in Swiss albino mouse assessed as protection against acetic acid-induced abdominal constriction at 100 mg/kg, po measured for 10 mins after 5 mins of acetic acid challenge relative to control; type: functional, Abdomen

COc1ccc(-c2nn(-c3ccccc3)cc2-c2cc(-c3ccccc3)on2)cc1
Activity (Rattus norvegicus [1]): 4 s | Activity (Mus musculus [2]): 11.77% | Activity (Rattus norvegicus [3]): 5.83 s | Activity (Rattus norvegicus [4]): 3.33 s | Activity (Mus musculus [5]): 30.99% | Activity (Rattus norvegicus [6]): 3.16 s | Activity (Rattus norvegicus [7]): 4.16 s | Activity (Rattus norvegicus [8]): 5.33 s | Activity (Rattus norvegicus [9]): 3.5 s | Activity (Rattus norvegicus [10]): 6 s

CN1C(=O)C2ON=C(c3cn(-c4ccccc4)nc3-c3ccccc3)C2C1=O (stereo not given)
Activity (Rattus norvegicus [1]): 3.5 s | Activity (Mus musculus [2]): 1.17% | Activity (Rattus norvegicus [3]): 5 s | Activity (Rattus norvegicus [4]): 3.33 s | Activity (Mus musculus [5]): 30.58% | Activity (Rattus norvegicus [6]): 3.16 s | Activity (Rattus norvegicus [7]): 3.5 s | Activity (Rattus norvegicus [8]): 4.83 s | Activity (Rattus norvegicus [9]): 3.33 s | Activity (Rattus norvegicus [10]): 5.16 s

CN1C(=O)C2ON=C(c3cn(-c4ccccc4)nc3-c3ccc(Cl)cc3)C2C1=O (stereo not given)
Activity (Rattus norvegicus [1]): 3.83 s | Activity (Mus musculus [2]): 7.84% | Activity (Rattus norvegicus [3]): 6.5 s | Activity (Rattus norvegicus [4]): 3.33 s | Activity (Mus musculus [5]): 23.15% | Activity (Rattus norvegicus [6]): 3.16 s | Activity (Rattus norvegicus [7]): 4 s | Activity (Rattus norvegicus [8]): 5.5 s | Activity (Rattus norvegicus [9]): 3.66 s | Activity (Rattus norvegicus [10]): 6.66 s

CCOC(=O)c1onc(-c2cn(-c3ccccc3)nc2-c2ccc(Cl)cc2)c1C(=O)OCC
Activity (Rattus norvegicus [1]): 4.16 s | Activity (Mus musculus [2]): 17.27% | Activity (Rattus norvegicus [3]): 8.33 s | Activity (Rattus norvegicus [4]): 3.83 s | Activity (Mus musculus [5]): 55.29% | Activity (Rattus norvegicus [6]): 3.33 s | Activity (Rattus norvegicus [7]): 4.33 s | Activity (Rattus norvegicus [8]): 7.5 s | Activity (Rattus norvegicus [9]): 4 s | Activity (Rattus norvegicus [10]): 8.66 s

CCOC(=O)c1onc(-c2cn(-c3ccccc3)nc2-c2ccc(Br)cc2)c1C(=O)OCC
Activity (Rattus norvegicus [1]): 3.83 s | Activity (Mus musculus [2]): 12.94% | Activity (Rattus norvegicus [3]): 8 s | Activity (Rattus norvegicus [4]): 3.33 s | Activity (Mus musculus [5]): 56.87% | Activity (Rattus norvegicus [6]): 3.33 s | Activity (Rattus norvegicus [7]): 4 s | Activity (Rattus norvegicus [8]): 7.5 s | Activity (Rattus norvegicus [9]): 3.5 s | Activity (Rattus norvegicus [10]): 8.16 s

CN1C(=O)C2ON=C(c3cn(-c4ccccc4)nc3-c3ccc(Br)cc3)C2C1=O (stereo not given)
Activity (Rattus norvegicus [1]): 3.83 s | Activity (Mus musculus [2]): 9.81% | Activity (Rattus norvegicus [3]): 7 s | Activity (Rattus norvegicus [4]): 3.33 s | Activity (Mus musculus [5]): 40.4% | Activity (Rattus norvegicus [6]): 3.16 s | Activity (Rattus norvegicus [7]): 3.83 s | Activity (Rattus norvegicus [8]): 6.5 s | Activity (Rattus norvegicus [9]): 3.33 s | Activity (Rattus norvegicus [10]): 7.16 s

O=C1C2ON=C(c3cn(-c4ccccc4)nc3-c3ccc(Cl)cc3)C2C(=O)N1c1ccccc1 (stereo not given)
Activity (Rattus norvegicus [1]): 4 s | Activity (Mus musculus [2]): 23.93% | Activity (Rattus norvegicus [3]): 6 s | Activity (Rattus norvegicus [4]): 3.33 s | Activity (Mus musculus [5]): 43.15% | Activity (Rattus norvegicus [6]): 3.33 s | Activity (Rattus norvegicus [7]): 4.16 s | Activity (Rattus norvegicus [8]): 5.5 s | Activity (Rattus norvegicus [9]): 3.66 s | Activity (Rattus norvegicus [10]): 6.16 s

Cc1ccc(N2C(=O)C3ON=C(c4cn(-c5ccccc5)nc4-c4ccc(Cl)cc4)C3C2=O)cc1 (stereo not given)
Activity (Rattus norvegicus [1]): 3.33 s | Activity (Mus musculus [2]): 22.75% | Activity (Rattus norvegicus [3]): 5.16 s | Activity (Rattus norvegicus [4]): 3.33 s | Activity (Mus musculus [5]): 42.75% | Activity (Rattus norvegicus [6]): 3.33 s | Activity (Rattus norvegicus [7]): 3.66 s | Activity (Rattus norvegicus [8]): 4.5 s | Activity (Rattus norvegicus [9]): 3.33 s | Activity (Rattus norvegicus [10]): 5.33 s

O=C1C2ON=C(c3cn(-c4ccccc4)nc3-c3ccccc3)C2C(=O)N1c1ccccc1 (stereo not given)
Activity (Rattus norvegicus [1]): 3.33 s | Activity (Mus musculus [2]): 30.58% | Activity (Rattus norvegicus [3]): 6.66 s | Activity (Rattus norvegicus [4]): 3.33 s | Activity (Mus musculus [5]): 47.39% | Activity (Rattus norvegicus [6]): 3.16 s | Activity (Rattus norvegicus [7]): 3.5 s | Activity (Rattus norvegicus [8]): 5.66 s | Activity (Rattus norvegicus [9]): 3.33 s | Activity (Rattus norvegicus [10]): 6.83 s

CCOc1ccc(-c2nn(-c3ccccc3)cc2C2=NOC3C(=O)N(c4ccccc4)C(=O)C23)cc1 (stereo not given)
Activity (Rattus norvegicus [1]): 3.5 s | Activity (Mus musculus [2]): 12.16% | Activity (Rattus norvegicus [3]): 6.16 s | Activity (Rattus norvegicus [4]): 3.16 s | Activity (Mus musculus [5]): 49.51% | Activity (Rattus norvegicus [6]): 3.16 s | Activity (Rattus norvegicus [7]): 3.16 s | Activity (Rattus norvegicus [8]): 5.83 s | Activity (Rattus norvegicus [9]): 3.5 s | Activity (Rattus norvegicus [10]): 6.83 s

CCOC(=O)c1onc(-c2cn(-c3ccccc3)nc2-c2ccc(OC)cc2)c1C(=O)OCC
Activity (Rattus norvegicus [1]): 4.33 s | Activity (Mus musculus [2]): 11.39% | Activity (Rattus norvegicus [3]): 7.66 s | Activity (Rattus norvegicus [4]): 3.83 s | Activity (Mus musculus [5]): 57.65% | Activity (Rattus norvegicus [6]): 3.33 s | Activity (Rattus norvegicus [7]): 5 s | Activity (Rattus norvegicus [8]): 7 s | Activity (Rattus norvegicus [9]): 4 s | Activity (Rattus norvegicus [10]): 7.83 s

CCCCc1cc(-c2cn(-c3ccccc3)nc2-c2ccc(Cl)cc2)no1
Activity (Rattus norvegicus [1]): 3.5 s | Activity (Mus musculus [2]): 12.56% | Activity (Rattus norvegicus [3]): 6.6 s | Activity (Rattus norvegicus [4]): 3.33 s | Activity (Mus musculus [5]): 47.09% | Activity (Rattus norvegicus [6]): 3.16 s | Activity (Rattus norvegicus [7]): 3.66 s | Activity (Rattus norvegicus [8]): 6.16 s | Activity (Rattus norvegicus [9]): 3.33 s | Activity (Rattus norvegicus [10]): 6.83 s

O=C1C2ON=C(c3cn(-c4ccccc4)nc3-c3ccc(Br)cc3)C2C(=O)N1c1ccccc1 (stereo not given)
Activity (Rattus norvegicus [1]): 3.66 s | Activity (Mus musculus [2]): 2.75% | Activity (Rattus norvegicus [3]): 6.83 s | Activity (Rattus norvegicus [4]): 3.16 s | Activity (Mus musculus [5]): 49.04% | Activity (Rattus norvegicus [6]): 3.16 s | Activity (Rattus norvegicus [7]): 3.66 s | Activity (Rattus norvegicus [8]): 6.5 s | Activity (Rattus norvegicus [9]): 3.33 s | Activity (Rattus norvegicus [10]): 7 s

Brc1ccc(-c2nn(-c3ccccc3)cc2-c2cc(-c3ccccc3)on2)cc1
Activity (Rattus norvegicus [1]): 3.66 s | Activity (Mus musculus [2]): 14.52% | Activity (Rattus norvegicus [3]): 5.66 s | Activity (Rattus norvegicus [4]): 3.33 s | Activity (Mus musculus [5]): 31.39% | Activity (Rattus norvegicus [6]): 3.16 s | Activity (Rattus norvegicus [7]): 3.23 s | Activity (Rattus norvegicus [8]): 5.16 s | Activity (Rattus norvegicus [9]): 3.5 s | Activity (Rattus norvegicus [10]): 5.83 s

CCOc1ccc(-c2nn(-c3ccccc3)cc2C2=NOC3C(=O)N(C)C(=O)C23)cc1 (stereo not given)
Activity (Rattus norvegicus [1]): 3.83 s | Activity (Mus musculus [2]): 22.75% | Activity (Rattus norvegicus [3]): 6 s | Activity (Rattus norvegicus [4]): 3.83 s | Activity (Mus musculus [5]): 47.46% | Activity (Rattus norvegicus [6]): 3.16 s | Activity (Rattus norvegicus [7]): 4 s | Activity (Rattus norvegicus [8]): 5.83 s | Activity (Rattus norvegicus [9]): 3.5 s | Activity (Rattus norvegicus [10]): 6.16 s

Clc1ccc(-c2nn(-c3ccccc3)cc2-c2cc(-c3ccccc3)on2)cc1
Activity (Rattus norvegicus [1]): 4 s | Activity (Mus musculus [2]): 1.58% | Activity (Rattus norvegicus [3]): 6.6 s | Activity (Rattus norvegicus [4]): 3.83 s | Activity (Mus musculus [5]): 49.04% | Activity (Rattus norvegicus [6]): 3.16 s | Activity (Rattus norvegicus [7]): 4.16 s | Activity (Rattus norvegicus [8]): 6.16 s | Activity (Rattus norvegicus [9]): 3.83 s | Activity (Rattus norvegicus [10]): 6.83 s

CC(C)=CCN1CC[C@]2(C)c3cc(O)ccc3C[C@H]1[C@H]2C [(+)-PENTAZOCINE]
Activity (Rattus norvegicus [11]): 9.16 s | Activity (Rattus norvegicus [12]): 9.3 s | Activity (Rattus norvegicus [13]): 9.33 s | Activity (Rattus norvegicus [14]): 8 s

CC(=O)Oc1ccccc1C(=O)O [ASPIRIN]
Activity (Mus musculus [15]): 62.35%
